Patent US10202373B2, “Heteroaryls and uses thereof” (MILLENNIUM PHARMACEUTICALS, INC., priority 2014, dated 2019)

Target: human VPS34 (Homo sapiens (Human), UniProt Q8NEB9)
Experiment: Human VPS34 enzyme assay (Adapta TR-FRET)
Assay type: biochemical
Conditions: for inhibition at 1.11 µM: 1 h, inhibition of VPS34 at a 1.11 μM concentration, read-out: Percent Inhibition; for IC50: human VPS34 enzyme assay, IC50 ranges
Method: VPS34 (accession number GB:BC033004) was cloned into pDEST20-Thombin as N-terminal GST tagged fusion proteins using the Gateway system (Invitrogen, catalog#11804-013). The sequences were verified before recombinant protein expression using the Baculovirus Expression System with Gateway® Technology. For expression VPS34 was infected at 1 MOI in SF9 cells and harvested 72 hours post infection. For purification, VPS34 is purified by Glutathione Sepharose 4 Fast Flow (GE Healthcare #17-5132-03) followed by HiTrap Q (GE Healthcare #17-1153-01). Human VPS34 Enzyme Assay Method 100 nL compounds in DMSO are added to wells of a 384 well microtitre plate (Greiner 780076). At room temperature: 5 ul VPS34 reaction buffer (Invitrogen Assay Buffer Q (diluted 1 in 5 with nanopure water) plus 2 mM DTT and 2 mM MnCl2) containing ATP (20 uM, Promega) and 200 uM PI-PS substrate (Invitrogen PV5122) is added followed immediately by 5 ul VPS34 reaction buffer (as above) containing VPS34 (5 nM, Millennium Protein Sciences Group) and the mixture is incubated with shaking at room temperature for 1 hour. Then 5 ul […]-detect mix (as per Invitrogen Adapta Assay kit (PV5009) instructions (contains kinase quench buffer, TR-FRET buffer, Adapta Eu anti-ADP antibody and Alexa Fluor 647 ADP tracer)) is added to quench the reaction. The plates are then incubated for 30 minutes at room temperature with shaking and then read on a BMG PheraStar Plus reader. For the assay methods described above, test compound percent inhibition, at various concentrations, is calculated relative to control (DMSO and EDTA) treated samples. Compound concentration versus percent inhibition curves are fitted to generate IC50 values. One skilled in the art will appreciate that the values generated either as percentage inhibition at a single concentration or IC50 values are subject to experimental variation. […] Additionally, compounds of the invention that inhibit VPS34 are described with the following IC50 ranges: […]

Sequence of human VPS34 (Q8NEB9 whole entry): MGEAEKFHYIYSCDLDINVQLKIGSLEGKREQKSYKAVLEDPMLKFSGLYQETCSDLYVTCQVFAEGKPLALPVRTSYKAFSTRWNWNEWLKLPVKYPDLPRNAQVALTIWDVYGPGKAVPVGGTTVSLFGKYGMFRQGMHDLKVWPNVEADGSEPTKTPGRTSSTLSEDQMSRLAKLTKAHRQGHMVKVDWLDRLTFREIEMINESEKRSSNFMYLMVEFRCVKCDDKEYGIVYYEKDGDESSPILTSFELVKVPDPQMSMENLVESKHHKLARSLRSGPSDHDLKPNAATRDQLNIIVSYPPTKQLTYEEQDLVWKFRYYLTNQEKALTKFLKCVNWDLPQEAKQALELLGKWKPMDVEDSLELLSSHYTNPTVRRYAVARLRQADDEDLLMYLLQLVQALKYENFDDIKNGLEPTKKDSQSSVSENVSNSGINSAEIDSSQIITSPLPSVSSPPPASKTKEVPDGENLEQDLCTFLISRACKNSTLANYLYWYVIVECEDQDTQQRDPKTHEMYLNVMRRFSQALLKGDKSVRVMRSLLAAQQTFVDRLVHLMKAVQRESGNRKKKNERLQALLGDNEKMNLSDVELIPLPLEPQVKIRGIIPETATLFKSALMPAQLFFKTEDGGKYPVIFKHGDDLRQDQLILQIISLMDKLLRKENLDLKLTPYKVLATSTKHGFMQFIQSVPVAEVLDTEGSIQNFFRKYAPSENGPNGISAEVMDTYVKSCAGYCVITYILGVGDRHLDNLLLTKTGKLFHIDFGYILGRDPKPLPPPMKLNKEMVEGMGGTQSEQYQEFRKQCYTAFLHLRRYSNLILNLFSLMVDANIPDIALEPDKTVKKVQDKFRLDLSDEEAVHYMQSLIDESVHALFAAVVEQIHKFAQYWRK

Structure (SMILES) | inhibition at 1.11 µM [%] | IC50 [nM]
Cc1ncc(-c2ccnc(NC(=O)C3CC3(F)F)c2)c2ccn(S(C)(=O)=O)c12 (racemic) [Compound I-35, (rac)-2,2-difluoro-N-{4-[7-methyl-1-(methylsulfonyl)-1H-pyrrolo[2,3-c]pyridin-4-yl]pyridin-2-yl}cyclopropanecarboxamide] | > 99 | < 10
COC(=O)Nc1cc(-c2cnc(OC)c3c2ccn3S(C)(=O)=O)ccn1 [Compound I-1, methyl {4-[7-methoxy-1-(methylsulfonyl)-1H-pyrrolo[2,3-c]pyridin-4-yl]pyridin-2-yl}carbamate] | > 99 | < 10
COC(=O)Nc1cc(-c2cnc(C)c3c2ccn3S(=O)(=O)c2ccccc2)ccn1 [Compound I-2, methyl {4-[7-methyl-1-(phenylsulfonyl)-1H-pyrrolo[2,3-c]pyridin-4-yl]pyridin-2-yl}carbamate] | > 99 | < 10
CCc1ncc(-c2ccnc(NC(C)=O)c2)c2ccn(S(C)(=O)=O)c12 [Compound I-3, N-{4-[7-ethyl-1-(methylsulfonyl)-1H-pyrrolo[2,3-c]pyridin-4-yl]pyridin-2-yl}acetamide] | > 99 | < 10
CC(=O)Nc1cc(-c2cnc(C)c3c2ccn3S(=O)(=O)c2ccccc2)ccn1 [Compound I-4, N-{4-[7-methyl-1-(phenylsulfonyl)-1H-pyrrolo[2,3-c]pyridin-4-yl]pyridin-2-yl}acetamide] | > 99 | < 10
CC(=O)Nc1cc(-c2cnc(C)c3c2c(C)cn3S(C)(=O)=O)ccn1 [Compound I-5, N-{4-[3,7-dimethyl-1-(methylsulfonyl)-1H-pyrrolo[2,3-c]pyridin-4-yl]pyridin-2-yl}acetamide] | > 99 | 50 to 100
COC(=O)Nc1cc(-c2cnc(C)c3c2ccn3S(=O)(=O)N(C)C)ccn1 [Compound I-6, methyl {4-[1-(dimethylsulfamoyl)-7-methyl-1H-pyrrolo[2,3-c]pyridin-4-yl]pyridin-2-yl}carbamate] | > 99 | 10 to 50
CC(=O)Nc1cc(-c2cnc(C)c3c2ccn3S(=O)(=O)N(C)C)ccn1 [Compound I-7, N-{4-[1-(dimethylsulfamoyl)-7-methyl-1H-pyrrolo[2,3-c]pyridin-4-yl]pyridin-2-yl}acetamide] | > 99 | < 10
CC(=O)Nc1cc(-c2cncc3c2ccn3S(=O)(=O)C2CC2)c(F)cn1 [Compound I-8, N-{4-[1-(cyclopropylsulfonyl)-1H-pyrrolo[2,3-c]pyridin-4-yl]-5-fluoropyridin-2-yl}acetamide] | > 99 | 10 to 50
CS(=O)(=O)n1ccc2c(-c3ccnc(Nc4ncco4)c3)cncc21 [Compound I-9, 4-[1-(methylsulfonyl)-1H-pyrrolo[2,3-c]pyridin-4-yl]-N-(1,3-oxazol-2-yl)pyridin-2-amine] | > 99 | 10 to 50
COC(=O)Nc1cc(-c2cnc(OC)c3c2ccn3S(=O)(=O)c2ccccc2)ccn1 [Compound I-10, methyl {4-[7-methoxy-1-(phenylsulfonyl)-1H-pyrrolo[2,3-c]pyridin-4-yl]pyridin-2-yl}carbamate] | > 99 | < 10
CC(=O)Nc1cc(-c2cnc(C)c3c2ccn3S(=O)(=O)c2ccc(F)cc2F)ccn1 [Compound I-11, N-(4-{1-[(2,4-difluorophenyl)sulfonyl]-7-methyl-1H-pyrrolo[2,3-c]pyridin-4-yl}pyridin-2-yl)acetamide] | > 99 | 10 to 50
COC(=O)Nc1cc(-c2cnc(C)c3c2ccn3S(=O)(=O)C2CCCC2)ccn1 [Compound I-12, methyl {4-[1-(cyclopentylsulfonyl)-7-methyl-1H-pyrrolo[2,3-c]pyridin-4-yl]pyridin-2-yl}carbamate] | > 99 | 10 to 50
O=S(=O)(c1ccccc1)n1ccc2c(-c3ccnc(Nc4ncco4)c3)cncc21 [Compound I-13, N-(1,3-oxazol-2-yl)-4-[1-(phenylsulfonyl)-1H-pyrrolo[2,3-c]pyridin-4-yl]pyridin-2-amine] | > 99 | 10 to 50
CC(=O)Nc1cc(-c2cnc(C)c3c2c(F)cn3S(=O)(=O)C2CC2)ccn1 [Compound I-14, N-{4-[1-(cyclopropylsulfonyl)-3-fluoro-7-methyl-1H-pyrrolo[2,3-c]pyridin-4-yl]pyridin-2-yl}acetamide] | > 99 | 10 to 50
COC(=O)Nc1cc(-c2cnc(C)c3c2ccn3S(=O)(=O)CC(C)C)ccn1 [Compound I-15, methyl {4-[1-(isobutylsulfonyl)-7-methyl-1H-pyrrolo[2,3-c]pyridin-4-yl]pyridin-2-yl}carbamate] | > 99 | < 10
CCS(=O)(=O)n1ccc2c(-c3ccnc(NC(C)=O)c3)cnc(C)c21 [Compound I-16, N-{4-[1-(ethylsulfonyl)-7-methyl-1H-pyrrolo[2,3-c]pyridin-4-yl]pyridin-2-yl}acetamide] | > 99 | < 10
COC(=O)Nc1cc(-c2cncc3c2ccn3S(=O)(=O)N(C)C)ccn1 [Compound I-17, methyl {4-[1-(dimethylsulfamoyl)-1H-pyrrolo[2,3-c]pyridin-4-yl]pyridin-2-yl}carbamate] | > 99 | < 10
CC(=O)Nc1cc(-c2cnc(N(C)C)c3c2ccn3S(=O)(=O)C2CC2)ccn1 [Compound I-18, N-{4-[1-(cyclopropylsulfonyl)-7-(dimethylamino)-1H-pyrrolo[2,3-c]pyridin-4-yl]pyridin-2-yl}acetamide] | > 99 | 10 to 50
CC(=O)Nc1cc(-c2cncc3[nH]ccc23)ccn1 [Compound I-20, N-[4-(1H-pyrrolo[2,3-c]pyridin-4-yl)pyridin-2-yl]acetamide] | > 99 | 50 to 100
CC(=O)Nc1cc(-c2cncc3c2ccn3S(C)(=O)=O)ccn1 [Compound I-21, N-{4-[1-(methylsulfonyl)-1H-pyrrolo[2,3-]pyridin-4-yl]pyridin-2-yl}acetamide] | > 99 | 10 to 50
CC(=O)Nc1cc(-c2cncc3c2cnn3S(=O)(=O)C2CC2)ccn1 [Compound I-22, N-{4-[1-(cyclopropylsulfonyl)-1H-pyrazolo[3,4-c]pyridin-4-yl]pyridin-2-yl}acetamide] | > 99 | 50 to 100
CC(=O)Nc1cc(-c2cnc(C)c3c2ccn3S(=O)(=O)N2CCCC2)ccn1 [Compound I-23, N-{4-[7-methyl-1-(pyrrolidin-1-ylsulfonyl)-1H-pyrrolo[2,3-c]pyridin-4-yl]pyridin-2-yl}acetamide] | > 99 | < 10
CCc1cc2c(-c3ccnc(NC(C)=O)c3)cncc2n1S(=O)(=O)c1ccccc1 [Compound I-24, N-{4-[2-ethyl-1-(phenylsulfonyl)-1H-pyrrolo[2,3-c]pyridin-4-yl]pyridin-2-yl}acetamide] | > 99 | 10 to 50
CCOC(=O)Nc1cc(-c2cncc3c2ccn3S(C)(=O)=O)ccn1 [Compound I-25, ethyl {4-[1-(methylsulfonyl)-1H-pyrrolo[2,3-c]pyridin-4-yl]pyridin-2-yl}carbamate] | > 99 | < 10
